Measurements as given in patent publication US12023348B2, “EGR1 targeting molecules for the treatment of inflammatory and hyperproliferative conditions” (The Medical Research, Infrastructure and Health Services …, priority 2015, dated 2024).

Assays:
Assay type in all cases: cell-based, human
SAMD9 promoter [1] = experiment: High-throughput luciferase reporter screen in HeLa line stably expressing 585 bp SAMD9 promoter fragment; settings: Homo sapiens, HeLa; fold increase in promoter activity by luciferase assay vs cells treated with vehicle only; test drugs 10 μM, 24 hours; read-out: SAMD9 expression fold change in HeLa reporter assay
Procedure: HeLa cell lines stably expressing the constructs were generated under neomycin selection. Briefly, pGL4.17 containing a SAMD9 promoter fragment spanning 585 bp upstream to the TSS and an empty pGL4.17 vector were transfected into HeLa cells. Forty eight hours after transfection, standard medium was replaced with medium containing 600 μg/ml G418 (Sigma-Aldrich), cells were kept under G418 selection and the selective medium was replaced approximately every 2-3 days. After two passages, colonies of stable cells were isolated, expanded and frozen for further use.
Test drugs were dispensed at a concentration of 10 μM by a robotic system into 96-well plates containing 9000 cells/well expressing the pGL4.17 reporter construct carrying a 585 bp SAMD9 promoter fragment operably linked to luciferase gene or the empty pGL4.17 luciferase construct (Promega cat. no. E6721). Medium was removed after 24 hours and the cells subjected to Steady-Glo luciferase lysis-substrate solution assay (Promega) as described above. Liquid handling was done with the Tecan (Tecan) Freedom 150 (Robotic & MCA liquid Handling System) and the luciferase reading was done with a robot integrated Tecan Infinite® M1000 reader.
This cell line was then used to robotically screen a total of 1496 compounds obtained from the National Cancer Institute Diversity Set III and Oncology Drugs Set III small molecule libraries.

SAMD9 = SAMD9 RNA expression by qRT-PCR in HeLa cells; settings: fold increase in RNA gene expression vs cells treated with vehicle only
Procedure: HeLa cells were cultured in DMEM 4.5 g/l glucose medium containing 10% FCS, 1% L-glutamine and 1% penicillin and streptomycin (Biological Industries) and grown at 37° C. and 5% CO2.
Of note, when cells were incubated with CaCx and ApDx (NCI, MA USA), they were grown in the appropriate medium with 0.1% FCS only.
RNA was extracted from cell cultures using an RNA extraction kit (Roche Diagnostics, Mahheim, Germany). cDNA was synthesized from 500 ng of total RNA using the Verso cDNA kit (Thermo Fisher Scientific, Waltham, MA, USA). cDNA PCR amplification was carried out using the Fast SYBR Green Master Mix in a StepOnePlus™ Real-Time PCR System (Applied Biosystems, Foster City, CA, USA) with gene-specific intron-crossing oligonucleotide pairs listed in Table 1 (below). For quantification, standard curves were obtained using serially diluted cDNA amplified in the same qRT-PCR run. The melting temperature (Tm) of the amplified products was measured to confirm the specificity of the reaction conditions. Cycling conditions were as follows: 95° C. for 10 minutes, 95° C. for 10 seconds, 62° C. for 15 seconds, and 72° C. for 25 seconds for a total of 40 cycles. Each sample was analyzed in triplicate. mRNA expression level for target gene was normalized to GAPDH. The results are based the amount of target, normalized to an endogenous reference (IACTB) and relative to a calibrator, as calculated by 2-ΔΔCT. All samples were run in triplicate. The expression levels of target genes were expressed as mRNA relative units.
The potential ability of these 31 molecules to induce SAMD9 expression in cell cultures was then scrutinized.

SAMD9 promoter [2] = experiment: Dual luciferase reporter assay in HeLa cells transiently transfected with SAMD9 promoter construct; settings: transient transfection, IFN-γ 10 ng/ml, 48 hours after transfection (FIG. 1A)
Excerpt: SAMD9 promoter fragments cloned into pGL3 as previously described [Hershkovitz, D. et al. (2011) J Invest Dermatol 131: 662-9], were digested with KpnI and XhoI and subcloned into pGL4.17 [luc2/Neo] (Promega). The expression vector pGL4.17 encodes the luciferase reporter gene luc2 (Photinuspyralis) and contains a mammalian selectable marker for neomycin resistance. For transient transfection, SAMD9 promoter-luciferase constructs were transfected into HeLa cells using lipofectamine 2000 (Invitrogen, Carlsbad, CA) according to the manufacturer's instructions.
Cellular protein was extracted by adding 20 μl of Promega Lysis Buffer (PLB) (Promega) to each sample and incubated for a period of 15 minutes. Cell lysate was analyzed in a 96-well flat white plate (Greiner Bio-One, United Kingdom) where 100 μl of Luciferase Assay Reagent II (LAR II) (Promega) was added to each sample. Luminescence was ascertained using the Infinite M200 multimode microplate reader (Tecan Ltd, Minnedorf, Switzerland). After the initial reading, 100 μl of Stop & GloR Reagent (Promega) were dispensed into tested wells and Renilla luciferase levels were tested. The assay was completed after Luciferase levels were normalized to Renilla levels.
SAMD9 promoter activity was first analyzed using a luciferase reporter assay in HeLa cells. […]

SAMD9 promoter [3] = experiment: High-throughput luciferase reporter screen in HeLa line stably expressing 585 bp SAMD9 promoter fragment; settings: IFN-γ 10 ng/ml for 24 hours (FIG. 1B)

| Compound | fold induction at 10 µM (SAMD9 promoter [1]) | SAMD9 expression fold change in HeLa cells (SAMD9) [fold] | SAMD9 promoter activity (luciferase) (SAMD9 promoter [2]) | Response of stable SAMD9 promoter-luciferase HeLa cell line (SAMD9 promoter [3]) |
| --- | --- | --- | --- | --- |
| N#CC(NCc1cccc(CNC(C#N)c2ccccc2)c1)c1ccccc1 (stereo not shown) [Compound 681730, 2,2′-(1,3-phenylenebis (methylene))bis(azanediyl)bis(2-phenylacetonitrile)] | 2.48 | 1.6 |  |  |
| IFN-γ: interferon-gamma, previously identified as a strong inducer of SAMD9 expression |  |  | significantly induced | respond robustly |
